Measurements as given in patent US8637511B2, “Aminopyrimidines useful as kinase inhibitors” (Vertex Pharmaceuticals Incorporated, priority 2005, dated 2014).
pIC50, pKi: −log10 of the molar value. “And” between values parts separate entries of the source, which are not always exact repeats. Equal values may be shown once. Read-outs that look alike come from different tables or passages of the source.

Experiments:
Aurora-1 (Aurora B) = Aurora-1 (Aurora B) (Homo sapiens, UniProt Q96GD4); assay: Aurora-1 (Aurora B) inhibition assay (radiometric); type: biochemical; conditions: read-out: Aurora B kinase Ki value
Method: An assay buffer solution was prepared which consisted of 25 mM HEPES (pH 7.5), 10 mM MgCl2, 0.1% BSA and 10% glycerol. […] To 22 μL of the Aurora-B solution, in a 96-well plate, was added 2 μl of a compound stock solution in DMSO and the mixture allowed to equilibrate for 10 minutes at 25° C. The enzyme reaction was initiated by the addition of 16 μl stock [γ-^33P]-ATP solution (˜20 nCi/μL) prepared in assay buffer, to a final assay concentration of 800 μM. The reaction was stopped after 3 hours by the addition of 16 μL 500 mM phosphoric acid and the levels of ^33P incorporation into the peptide substrate were determined by the following method.
A phosphocellulose 96-well plate (Millipore, Cat no. MAPHNOB50) was pre-treated with 100 μL of a 100 mM phosphoric acid prior to the addition of the enzyme reaction mixture (40 μL). The solution was left to soak on to the phosphocellulose membrane for 30 minutes and the plate subsequently washed four times with 200 μL of a 100 mM phosphoric acid. […] Levels of non-enzyme catalyzed background radioactivity were determined by adding 16 μL of the 500 mM phosphoric acid to control wells, containing all assay components (which acts to denature the enzyme), prior to the addition of the [γ-^33P]-ATP solution. Levels of enzyme catalyzed. ^33P incorporation were calculated by subtracting mean background counts from those measured at each inhibitor concentration. […] Ki values were calculated from initial rate data by non-linear regression using the Prism software package (Prism 3.0, Graphpad Software, San Diego, Calif.).

Colo205 cells = assay: Analysis of cell proliferation and viability; type: cell-based; conditions: Homo sapiens, COLO 205, Colo205 cells, read-out: IC50 value
Method: Colo205 cells were seeded in 96 well plates and serially diluted compound was added to the wells in duplicate. Control groups included untreated cells, the compound diluent (0.1% DMSO alone) and culture medium without cells.
To measure proliferation, 3 h prior to the end of the experiment 0.5 μCi of 3H thymidine was added to each well. Cells were then harvested and the incorporated radioactivity counted on a Wallac microplate beta-counter. Cell viability was assessed using Promega CellTiter 96AQ to measure MTS conversion. Dose response curves were calculated using either Prism 3.0 (GraphPad) or SoftMax Pro 4.3.1 LS (Molecular Devices) software.

Aurora-2 (Aurora A) = molecular target: T1, Aurora-2 (Aurora A) (Homo sapiens, UniProt O14965); assay: Aurora-2 (Aurora A) inhibition assay, coupled enzyme; type: biochemical
T1 sequence (O14965 1-403): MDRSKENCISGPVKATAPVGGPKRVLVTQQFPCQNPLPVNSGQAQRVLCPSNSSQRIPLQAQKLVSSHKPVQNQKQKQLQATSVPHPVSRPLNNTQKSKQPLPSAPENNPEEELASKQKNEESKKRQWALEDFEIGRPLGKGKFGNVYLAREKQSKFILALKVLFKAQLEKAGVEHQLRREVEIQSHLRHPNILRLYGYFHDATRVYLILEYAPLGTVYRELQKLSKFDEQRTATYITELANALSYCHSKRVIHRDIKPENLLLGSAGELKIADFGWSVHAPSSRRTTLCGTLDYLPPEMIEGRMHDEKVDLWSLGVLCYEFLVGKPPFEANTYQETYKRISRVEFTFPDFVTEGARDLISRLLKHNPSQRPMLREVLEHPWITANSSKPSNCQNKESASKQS
Method: Assays were carried out in a mixture of 100 mM Hepes (pH7.5), 10 mM MgCl2, 1 mM DTT, 25 mM NaCl, 2.5 mM phosphoenolpyruvate, 300 μM NADH, 30 μg/ml pyruvate kinase and 10 μg/ml lactate dehydrogenase. […] Assays were carried out at 30° C. and in the presence of 40 nM Aurora-2.
The plate was preincubated for 10 minutes at 30° C. and the reaction initiated by addition of 10 μl of Aurora-2. Initial reaction rates were determined with a Molecular Devices SpectraMax Plus plate reader over a 10 minute time course. IC50 and Ki data were calculated from non-linear regression analysis using the Prism software package (GraphPad Prism version 3.0cx for Macintosh, GraphPad Software, San Diego Calif., USA).

[1] = read-out: Aurora A kinase Ki value

Chain of Aurora-1 (Aurora B) (Q96GD4 whole entry): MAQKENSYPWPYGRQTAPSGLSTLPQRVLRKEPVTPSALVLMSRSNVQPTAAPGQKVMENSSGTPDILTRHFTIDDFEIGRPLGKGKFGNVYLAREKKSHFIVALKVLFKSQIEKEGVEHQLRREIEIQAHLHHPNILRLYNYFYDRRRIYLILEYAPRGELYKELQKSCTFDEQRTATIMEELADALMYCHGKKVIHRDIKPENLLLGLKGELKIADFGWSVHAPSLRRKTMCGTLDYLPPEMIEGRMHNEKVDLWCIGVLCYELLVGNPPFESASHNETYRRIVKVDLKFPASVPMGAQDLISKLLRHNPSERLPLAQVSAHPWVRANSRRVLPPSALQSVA

| SMILES | pKi (Aurora-1 (Aurora B)) | pIC50 (Colo205 cells; incubated for 72 hours) | pKi (Aurora-2 (Aurora A); [1]) | pIC50 (Colo205 cells; incubated for 96 hours) | pKi (Aurora-2 (Aurora A)) |
| --- | --- | --- | --- | --- | --- |
| CCOP(=O)(O)OC1(C)CN(c2cc(Nc3cc(C)n[nH]3)nc(Sc3ccc(NC(=O)c4ccccc4C(F)(F)F)cc3)n2)C1 [Compound 129] | ≥ 8.00 | < 6.70 | ≥ 9.00 | – | – |
| CCC(=O)Nc1ccc(Sc2nc(Nc3cc(C)n[nH]3)cc(N3CC(O)(c4ccccc4C)C3)n2)cc1 [Compound 93] | 5.70 to 7.30 | – | ≥ 9.00 | 6.00 to 7.30 | – |
| CCN(CC)C(=O)Nc1ccc(Sc2nc(Nc3cc(C)[nH]n3)cc(N3CCC3)n2)cc1 [Compound 72] | 5.70 to 7.30 | – | 6.70 to 8.30 | < 6.00 | – |
| Cc1cc(Nc2cc(N3CCC3)nc(Sc3ccc(NC(=O)c4sc(C)nc4C)cc3)n2)n[nH]1 [Compound 41] | 5.70 to 7.30 | – | 6.70 to 8.30 | 6.00 to 7.30 | – |
| Cc1cc(Nc2cc(N3CCC3)nc(Sc3ccc(C(=O)NC4CC4)cc3)n2)n[nH]1 [Compound 18] | 7.30 to 8.00 and > 7.60 | – | – | 6.00 to 7.30 | 6.70 to 8.30 |
| Cc1cc(Nc2cc(N3CCC3)nc(Sc3ccc(NC(=O)c4ccccc4Cl)nc3)n2)[nH]n1 [Compound 207] | – | < 6.70 | 8.30 to 9.00 | – | – |
| Cc1cc(Nc2cc(N3CCC3)nc(Sc3ccc(NC(=O)c4cccnc4C)cc3)n2)[nH]n1 [Compound 63] | 7.30 to 8.00 | – | 6.70 to 8.30 | < 6.00 | – |
| CCC(=O)Nc1ccc(Sc2nc(Nc3cc(C)n[nH]3)cc(N3CC(O)(CC)C3)n2)cc1 [Compound 98] | – | – | – | 6.00 to 7.30 | – |
| Cc1cc(Nc2cc(C(=O)N3CCC3)nc(Sc3ccc(NC(=O)c4ccccc4Cl)cc3)n2)n[nH]1 [Compound 62] | 5.70 to 7.30 | – | – | < 6.00 | – |

More lines, now with the values ahead:

| pKi (Aurora-1 (Aurora B)) | pIC50 (Colo205 cells; incubated for 72 hours) | pKi (Aurora-2 (Aurora A); [1]) | pIC50 (Colo205 cells; incubated for 96 hours) | pKi (Aurora-2 (Aurora A)) | SMILES |
| --- | --- | --- | --- | --- | --- |
| 5.70 to 7.30 | < 6.70 | 6.70 to 8.30 | – | – | CCC(=O)Nc1ccc(Sc2nc(CCN3CCC3)cc(Nc3cc(C)n[nH]3)n2)cc1 [Compound 197] |
| 5.70 to 7.30 | – | – | 6.00 to 7.30 | – | Cc1cc(Nc2cc(N3CCC3)nc(Sc3ccc(NC(=O)c4cccc(CN5CCC5)c4)cc3)n2)[nH]n1 [Compound 140] |
| ≥ 8.00 | – | ≥ 9.00 | ≥ 7.30 | – | Cc1cc(Nc2cc(N3CC(O)(C4CC4)C3)nc(Sc3ccc4nc(C)ccc4c3)n2)[nH]n1 [Compound 153] |
| 7.30 to 8.00 and > 7.60 | ≥ 7.52 | – | – | – | Cc1cc(Nc2cc(N3CC(N4CCCC4)C3)nc(Sc3ccc4nc(C(F)(F)F)n(C)c4c3)n2)[nH]n1 [Compound 176] |
| 7.30 to 8.00 and > 7.60 | 6.70 to 7.52 | ≥ 9.00 | 6.00 to 7.30 | – | Cc1cc(Nc2cc(N3CC(F)(C4CC4)C3)nc(Sc3ccc4c(c3)N(C)C(C(F)(F)F)N4)n2)[nH]n1 (stereo not shown) [Compound 156] |
| 5.70 to 7.30 | < 6.70 | 8.30 to 9.00 | – | – | CCOc1ccc(Sc2nc(Nc3cc(C)n[nH]3)cc(N3CC(C(=O)N4CCCC4)C3)n2)cc1 [Compound 141] |
| ≥ 8.00 | – | ≥ 9.00 | 6.00 to 7.30 | – | COC(=O)c1ccc(Sc2nc(Nc3cc(C4CC4)[nH]n3)cc(N3CC(O)(C4CC4)C3)n2)cc1 [Compound 106] |
| ≥ 8.00 | – | ≥ 9.00 | ≥ 7.30 | – | CCC(=O)Nc1ccc(Sc2nc(Nc3cc(C)n[nH]3)cc(N3CC(O)(C4CCCCC4)C3)n2)cc1 [Compound 101] |
| 5.70 to 7.30 | – | 6.70 to 8.30 | 6.00 to 7.30 | – | CC(=O)Nc1ccc(Nc2nc(Nc3cc(C)n[nH]3)cc(N3CC(F)(C4CC4)C3)n2)cc1 [Compound 201] |
| ≥ 8.00 | 6.70 to 7.52 | ≥ 9.00 | – | – | Cc1cc(Nc2cc(N3CC(C)(C#N)C3)nc(Sc3ccc(NC(=O)c4ccccc4C(F)(F)F)cc3)n2)[nH]n1 [Compound 122] |
| ≥ 8.00 | ≥ 7.52 | ≥ 9.00 | – | – | CCC1(F)CN(c2cc(Nc3cc(C)n[nH]3)nc(Sc3ccc(NC(=O)CC(F)(F)F)cc3)n2)C1 [Compound 196] |
